What was measured:
Format in all cases: physicochemical
[1] = Rate of dissolution in water; conditions: compared with bromfenac sodium Form I or other hydrated forms
[2] = Water adsorption under wet nitrogen hydration conditions in vacuum oven; conditions: 30-35° C. vacuum oven (5 mm Hg), 17 hours
[3] = Stability of polymorph towards atmospheric moisture (hydration and conversion); conditions: must be protected from atmospheric moisture, hydrates to Form I
Description: If so desired, the above-described procedures for producing bromfenac sodium Form I may be adapted and modified so as to provide a product that is a mixture of bromfenac sodium Form I and bromfenac sodium Form II. Bromfenac sodium Form II is a polymorph that is believed to be a monohydrate of bromfenac sodium, i.e., containing one water molecule per molecule of bromfenac sodium, and characterized by a powder x-ray diffraction pattern having main peaks expressed as 2-theta at about 11.3, 14.4, 16.5, 17.3, 18.5, 19.4, 20.7, 21.0, 22.7, 29.0, 31.8, 34.1 and 36.1 degrees. Drying the crystalline product initially obtained in the crystallization process described above under a vacuum results in the removal of some water of hydration from the sesquihydrate and the formation of the Form II polymorph, as evidenced by XRPD. The vacuum drying conditions may be adjusted so as to vary the Form II polymorph content of the product obtained. For example, higher drying temperatures, lower pressures, and increased drying times will generally all increase the amount of bromfenac sodium Form II present. It is believed that such parameters may be selected so as to provide bromfenac sodium Form II in substantially pure form (i.e., substantially free of any bromfenac sodium Form I or any other polymorph). […]

[4] = Stability of Form I polymorph on exposure to water vapour (XRPD and water content analyses); conditions: moisturized alongside a dish of water in a bag sealed under nitrogen for 19 h
Experimental: Sodium salt of 2-amino-3-(4-bromobenzoyl)phenylacetic acid, Form I polymorph (0.6 g) was placed in a drying dish alongside a dish containing water (20 g) in a plastic bag. The bag was sealed under nitrogen and the product allowed to moisturize for 19 h.

Compound: Nc1c(CC(=O)[O-])cccc1C(=O)c1ccc(Br)cc1.[Na+] [Bromfenac sodium Form III, sodium salt of 2-amino-3-(4-bromobenzoyl)phenylacetic acid]
- rate of dissolution in water [1]: significantly lower
- water content of sample after wet nitrogen hydration conditions [2]: did not change

Compound: Nc1c(CC(=O)[O-])cccc1C(=O)c1ccc(Br)cc1.[Na+] [Bromfenac sodium Form II, sodium salt of 2-amino-3-(4-bromobenzoyl)phenylacetic acid]
- stability of the polymorph [3]: not stable

Compound: Nc1c(CC(=O)[O-])cccc1C(=O)c1ccc(Br)cc1.Nc1c(CC(=O)[O-])cccc1C(=O)c1ccc(Br)cc1.O.O.O.[Na+].[Na+] [Bromfenac sodium Form I, sodium salt of 2-amino-3-(4-bromobenzoyl)phenylacetic acid, sesquihydrate]
- change in polymorphic form (XRPD and water content analyses) [4]: no change in polymorphic form
